System: c-myc in 22RV-1 cells
Experiment: Human c-myc ELISA assay
Format: cell-based
Details: Homo sapiens; for Emax: 22Rv1, 18 h, read-out: Degradation of BRD4: Maximum inhibition (%) c-Myc ELISA in 22RV1 cells; for DC50: 22Rv1, read-out: Degradation of BRD4: DC50 (uM) c-Myc ELISA in 22RV1 cells
In short: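 22RV-1 cells treated 18 h with 8-point 1:3 compound dilutions (final top 300 nM or 1 μM, 0.1% DMSO). Cells lysed in RIPA buffer with protease/phosphatase inhibitors, and c-myc protein in cleared lysate quantified by ELISA against a standard curve. DC50 reported for c-myc suppression.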

Row | Structure (SMILES) | Emax | DC50
1 | Cc1ncsc1-c1ccc(CNC(=O)[C@@H]2C[C@@H](O)CN2C(=O)[C@@H](NC(=O)COCCOCCOc2ccc(NC(=O)C[C@@H]3N=C(c4ccc(Cl)cc4)c4c(sc(C)c4C)-n4c(C)nnc43)cc2)C(C)(C)C)cc1 [Example 10, (2S,4R)-1-[(2S)-2-(2-{2-[2-(4-{2-[(9S)-7-(4-chlorophenyl)-4,5,13-trimethyl-3-thia-1,8,11,12-tetraazatricyclo[8.3.0.0^2,^6]trideca-2(6),4,7,10,12-pentaen-9-yl]acetamido}phenoxy)ethoxy]ethoxy}acetamido)-3,3-dimethylbutanoyl]-4-hydroxy-N-{[4-(4-methyl-1,3-thiazol-5-yl)phenyl]methyl}pyrrolidine-2-carboxamide] | 100% | 0.01 to 0.1 µM
2 | Cc1ncsc1-c1ccc(CNC(=O)[C@@H]2C[C@@H](O)CN2C(=O)[C@@H](C(C)C)n2cc(-c3ccnc(O[C@H]4C[C@H](NC(=O)C[C@@H]5N=C(c6ccc(Cl)cc6)c6c(sc(C)c6C)-n6c(C)nnc65)C4)c3)cn2)cc1 [Example 225, (2S,4R)-4-hydroxy-N-{[4-(4-methyl-1,3-thiazol-5-yl)phenyl]methyl}-1-[(2R)-3-methyl-2-(4-{2-[(1,3trans)-3-{2-[(9 S)-7-(4-chlorophenyl)-4,5,13-trimethyl-3-thia-1,8,11, 12-tetraazatricyclo[8.3.0.0^2,^6]trideca-2(6),4,7,10,12-pentaen-9-yl]acetamido}cyclobutoxy]pyridin-4-yl}-1H-pyrazol-1-yl)butanoyl]pyrrolidine-2-carboxamide] | 50.4% | > 1 µM
3 | Cc1ncsc1-c1ccc(CNC(=O)[C@@H]2C[C@@H](O)CN2C(=O)[C@@H](NC(=O)Cc2cccc(CCCCNC(=O)C[C@@H]3N=C(c4ccc(Cl)cc4)c4c(sc(C)c4C)-n4c(C)nnc43)c2)C(C)(C)C)cc1 [Example 70, (2S,4R)-1-[(2S)-2-{2-[3-(4-{2-[(9S)-7-(4-chlorophenyl)-4,5,13-trimethyl-3-thia-1,8,11,12-tetraazatricyclo[8.3.0.0^2,^6]trideca-2(6),4,7,10,12-pentaen-9-yl]acetamido}butyl)phenyl]acetamido}-3,3-dimethylbutanoyl]-4-hydroxy-N-{[4-(4-methyl-1,3-thiazol-5-yl)phenyl]methyl}pyrrolidine-2-carboxamide] | 88.8% | 0.01 to 0.1 µM
4 | Cc1ncoc1-c1ccc([C@H](C)NC(=O)[C@@H]2C[C@@H](O)CN2C(=O)[C@H](C(C)C)n2cc(-c3ccnc(O[C@H]4C[C@@H](NC(=O)C[C@@H]5N=C(c6ccc(Cl)cc6)c6c(sc(C)c6C)-n6c(C)nnc65)C4)c3)cn2)cc1 [Example 277] | 94% | 0.01 to 0.1 µM
5 | Cc1ncsc1-c1ccc([C@H](C)NC(=O)[C@@H]2C[C@@H](O)CN2C(=O)[C@@H](NC(=O)/C=C/c2cc(F)cc(O[C@H](C)CNC(=O)C[C@@H]3N=C(c4ccc(Cl)cc4)c4c(sc(C)c4C)-n4c(C)nnc43)c2)C(C)(C)C)cc1 [Example 202] | 94% | < 0.01 µM
6 | Cc1ncsc1-c1ccc(CNC(=O)[C@@H]2C[C@@H](O)CN2C(=O)[C@@H](NC(=O)COCCCOCCCOc2ccc(NC(=O)C[C@@H]3N=C(c4ccc(Br)cc4)c4c(sc(C)c4C)-n4c(C)nnc43)cc2)C(C)(C)C)cc1 [Example 62] | 98.5% | 0.01 to 0.1 µM
7 | Cc1ncsc1-c1ccc([C@H](C)NC(=O)[C@@H]2C[C@@H](O)CN2C(=O)[C@@H](NC(=O)CN2CCC(C(=O)N3CCN(C(=O)C[C@@H]4N=C(c5ccc(Cl)cc5)c5c(sc(C)c5C)-n5c(C)nnc54)CC3)CC2)C(C)(C)C)cc1 [Example 334] | 97% | < 0.01 µM
8 | Cc1sc2c(c1C)C(c1ccc(Cl)cc1)=N[C@@H](CC(=O)N[C@H]1C[C@@H](Oc3cccc(-c4cnn([C@@H](C(=O)N5C[C@H](O)C[C@H]5C(=O)N[C@@H](C)c5ccc(-c6nccn6C)cc5)C(C)C)c4)c3)C1)c1nnc(C)n1-2 [Example 290] | 15.5% | > 1 µM
9 | Cc1ncsc1-c1ccc(CNC(=O)[C@@H]2C[C@@H](O)CN2C(=O)[C@H](C(C)C)N2Cc3ccccc3C2=O)c(OCCOCCOCCOCCOCCOCCNC(=O)C[C@@H]2N=C(c3ccc(Cl)cc3)c3c(sc(C)c3C)-n3c(C)nnc32)c1 [Example 3] | 100% | 0.1 to 1 µM
10 | Cc1ncsc1-c1ccc([C@H](C)NC(=O)[C@@H]2C[C@@H](O)CN2C(=O)[C@@H](NC(=O)CCCCC(=O)N2CCN(C(=O)C[C@@H]3N=C(c4ccc(Cl)cc4)c4c(sc(C)c4C)-n4c(C)nnc43)CC2)C(C)(C)C)cc1 [Example 319] | 78.5% | 0.1 to 1 µM
11 | Cc1ncoc1-c1ccc(CNC(=O)[C@@H]2C[C@@H](O)CN2C(=O)[C@H](C(C)C)n2cc(-c3ccnc(O[C@H]4C[C@@H](NC(=O)C[C@@H]5N=C(c6ccc(Cl)cc6)c6c(sc(C)c6C)-n6c(C)nnc65)C4)c3)cn2)cc1 [Example 295] | 93.8% | 0.1 to 1 µM
12 | Cc1ncsc1-c1ccc([C@H](C)NC(=O)[C@@H]2C[C@@H](O)CN2C(=O)[C@@H](NC(=O)Cc2ccc(N3CC[C@H](NC(=O)C[C@@H]4N=C(c5ccc(Cl)cc5)c5c(sc(C)c5C)-n5c(C)nnc54)C3)cc2)C(C)(C)C)cc1 [Example 235, (2S,4R)-1-[(2S)-2-(2-{4-[(3S)-3-{2-[(9S)-7-(4-chlorophenyl)-4,5,13-trimethyl-3-thia-1,8,11,12-tetraazatricyclo[8.3.0.0^2,^6]trideca-2(6),4,7,10,12-pentaen-9-yl]acetamido}pyrrolidin-1-yl]phenyl}acetamido)-3,3-dimethylbutanoyl]-4-hydroxy-N-[(1S)-1-[4-(4-methyl-1,3-thiazol-5-yl)phenyl]ethyl]pyrrolidine-2-carboxamide] | 97.5% | < 0.01 µM
13 | Cc1ncsc1-c1ccc([C@H](C)NC(=O)[C@@H]2C[C@@H](O)CN2C(=O)[C@@H](NC(=O)Cc2cccc(O[C@H]3C[C@@H](NC(=O)C[C@@H]4N=C(c5ccc(Cl)cc5)c5c(sc(C)c5C)-n5c(C)nnc54)C3)c2)C(C)(C)C)cc1 [Example 204] | 88% | 0.01 to 0.1 µM
14 | Cc1ncsc1-c1ccc(CNC(=O)[C@@H]2C[C@@H](O)CN2C(=O)[C@@H](NC(=O)COCCn2cc(-c3ccc([C@H](C)NC(=O)C[C@@H]4N=C(c5ccc(Cl)cc5)c5c(sc(C)c5C)-n5c(C)nnc54)cc3)cn2)C(C)(C)C)cc1 [Example 86] | 80% | 0.1 to 1 µM
15 | Cc1ncsc1-c1ccc([C@H](C)NC(=O)[C@@H]2C[C@@H](O)CN2C(=O)[C@@H](NC(=O)c2cc3ccc(O[C@H](C)CNC(=O)C[C@@H]4N=C(c5ccc(Cl)cc5)c5c(sc(C)c5C)-n5c(C)nnc54)cc3o2)C(C)(C)C)cc1 [Example 211, (2S,4R)-1-[(2S)-2-[(6-{[(2R)-1-{2-[(9S)-7-(4-chlorophenyl)-4,5,13-trimethyl-3-thia-1,8,11,12-tetraazatricyclo[8.3.0.0^2,^6]trideca-2(6),4,7,10,12-pentaen-9-yl]acetamido}propan-2-yl]oxy}-1-benzofuran-2-yl)formamido]-3,3-dimethylbutanoyl]-4-hydroxy-N-[(1S)-1-[4-(4-methyl-1,3-thiazol-5-yl)phenyl]ethyl]pyrrolidine-2-carboxamide] | 99% | < 0.01 µM

Source: US11554171B2, “Compounds and methods for the targeted degradation of bromodomain-containing proteins” (Arvinas Operations, Inc., priority 2015, dated 2023)
